Experimental data as given in US20090208543A1, “METHOD AND APPARATUS FOR APPLYING A PROTECTIVE ORAL CARE COMPOSITION” (Oral Health Clinical Services, priority 2008, published 2009).

Test: Tooth bleaching effectiveness of gels on extracted human teeth (chroma meter, Delta E)
Details: comparison of catalase inhibitors
Description: Tooth bleaching effectiveness of the above gels was determined by using extracted human teeth. The teeth were freshly extracted, freed of all adherent tissues and stored in a sterile saline solution. The teeth were removed and the color was measured using a chroma meter commercially available from MINOLTA CR221. Readings were taken to record the L*, a*, and b* parameters. The teeth were then incubated in the various gels for 30 minutes. After this period, the gels were washed off and L*, a*, and b* parameters color re-measured. The change in color (Delta E) was then calculated using the CIE L*a*b* color difference equation:
Delta E=[(delta L*)^2+(delta a*)^2+(delta b*)^2]^0.5

SMILES: [F-].[Na+] [sodium fluoride]
- effectiveness among the compositions comprising the inhibitors: least effective
